Earlier results as cited in article PMC10801393 (Clinical and Translational Science, 2024).
Like-named read-outs stand apart in the source and are kept apart here.

Legend:
[1] = not given; remark: listed apart in the source
[2] = tamoxifen 20 mg/day

## CC(C)(C(=O)O)c1ccc(C(O)CCCN2CCC(C(O)(c3ccccc3)c3ccccc3)CC2)cc1 (centres unmarked) [fexofenadine, Fexofenadine]
other
  BDDCS class: class 3

## Cc1ncc2n1-c1ccc(Cl)cc1C(c1ccccc1F)=NC2 [midazolam]
[1]; postmenopausal group
  oral clearance geometric mean: 24.10 mL/min/kg
[1]; premenopausal group
  oral clearance geometric mean: 30.09 mL/min/kg

## CC/C(=C(\c1ccccc1)c1ccc(OCCN(C)C)cc1)c1ccccc1 [tamoxifen, Tamoxifen]
[2]; postmenopausal patients
  steady‐state plasma concentration (C ss): 201.23 ng/mL
[2]; premenopausal patients
  steady‐state plasma concentration (C ss): 116.95 ng/mL
